According to US20260207754A1, “MET PROTEIN DEGRADATION INDUCING COMPOUND” (ONCOZEN CO., LTD., priority 2022, published 2026):

Assays:
Type in all cases: cell-based
H1437 cells = experiment: Cell viability assay (CCK8); settings: three days treatment
Experimental: (§1) This experiment involves treating cells with each of the compounds prepared in Examples 1 to 11, and then observing changes in cell cytotoxicity and cell count. The IC50 values, derived from the changes in cell count, can be used to assess the cancer cell growth inhibition and anti-cancer effects of the compound of the present invention.
(§2) Cells (H596 or H1437 cells) were seeded in a 96-well plate at 3×10^3 cells per well and then cultured for more than 12 hours. After removing the media, each well was treated with 200 μl of the respective diluted compounds prepared in Examples 1 to 11. Three days later, the media was removed, and each well was treated with 10 μl of CCK8 reagent+90 μl of media. After 3-4 hours of reaction, the absorbance was measured using an ELISA reader at a wavelength of 450 nm.

H596 cells = experiment: Cell viability assay (CCK8); settings: three days treatment
Experimental: as §1, §2

c-MET (total form) [1] = experiment: Target protein degradation assay (Western blot); settings: for c-MET degradation H596: H596 cells, Western blot, standard concentration and time 5 μM, 72 hours; for degradation of the target MET protein: H596 or H1437 cells, summary of Table 3
Experimental: This experiment assessed the tendency and extent of degradation of the target protein c-MET (total form) in cells treated with each of the compounds prepared in Examples 1 to 11.
(§3) Cells (H596 or H1437 cells) were seeded in Φ60 or Φ100 culture dishes to reach 5×10^5 or 1×10^6 cells, and then cultured for more than 12 hours. After removing the media, the cells were treated with each respective compound prepared in Examples 1 to 11 at various conditions-concentrations (0, 2.5, 5, 10 μM), time (0, 6, 8, 24, 48, 72 hours), and standard concentration and time (5 μM, 72 hours) for all compounds. The cells were then harvested, lysed using RIPA buffer, and centrifuged (4° C., 13000 rpm, 15 min), to collect the supernatant in a new tube. Protein quantification was performed using the Bradford Assay, and samples were prepared for loading by boiling at 95° C. Western blotting was performed. The samples were loaded onto an SDS polyacrylamide gel (8% concentration). Electrophoresis was conducted at 80V, and then switched to 100-120V (when the loaded sample moves from the stacking gel to the running gel). After electrophoresis, the polyacrylamide gel was transferred onto the membrane (using transfer buffer diluted at 10× transfer buffer:methanol:D.W=1:2:7 ratio, cold, for 100V, 1 hour or 80V, 2 hours). The membrane was blocked with 5% skim milk for 30 minutes and washed with PBS-T (phosphate-buffered saline with Tween 20) buffer. The primary antibody was diluted in 5% BSA+NaN3 solution and reacted with the membrane for over 12 hours, followed by washing with PBS-T and reaction with 5% skim milk+secondary antibody for 1 hour and 30 minutes. After washing with PBS-T, the ECL solution was reacted with the membrane, and the bands were detected using an imaging device to confirm the degradation of the target protein c-MET.

c-MET (total form) [2] = experiment: Target protein degradation assay (Western blot); settings: H1437 cells, standard concentration and time 5 μM, 72 hours
Experimental: as §3, with “After removing the media, the cells were treated with each respective compound prepared in Examples 1 to 11 at various conditions-concentrations (0, 2.5, 5, 10 μM), time (0, 6, 8, 24, 48, 72 hours), and standard concentration and time (5 μM, 72 hours) for all compounds.” left out

Compound | IC50 (H1437 cells; Homo sapiens, NCI-H1437, 72 h) [µM] | IC50 (H596 cells; Homo sapiens, NCI-H596, 72 h) [µM] | IC50 (H1437 cells) [µM] | IC50 (H596 cells) [µM] | c-MET degradation H596 (c-MET (total form) [1]) | c-MET degradation H1437 (c-MET (total form) [2]) | degradation of the target MET protein (c-MET (total form) [1])
CC(C)c1cc(C(=O)N(C)Cc2ccc(C(=O)NCCOCCOC(=O)N3CCC(n4cc(-c5cnc(N)c(O[C@@H](C)c6c(Cl)ccc(F)c6Cl)c5)cn4)CC3)cc2)c(O)cc1O [OZD-MET 02] | 4.06 | 2.59 |  |  | 1 (50% < degradation: 1) | 1 (50% < degradation: 1) | 
CC(C)c1cc(C(=O)N(C)Cc2cccc(C(=O)O)c2)c(O)cc1O [Compound (d), reference compound] |  |  |  |  | No degradation | No degradation | no degradation
CC(C)c1cc(C(=O)N(C)Cc2cccc(C(=O)NCCOCCOC(=O)Nc3ccc(-c4cnc5ncc(Cc6ccc7ncccc7c6)n5n4)cc3F)c2)c(O)cc1O [OZD-MET 08, 2-{2-[(3-{[1-(2,4-dihydroxy-5-isopropylphenyl)-N-methylformamido]methyl}phenyl)formamido]ethoxy}ethyl N-{2-fluoro-4-[7-(quinolin-6-ylmethyl)imidazo[1,2-b][1,2,4]triazin-2-yl]phenyl}carbamate] | 4.34 | 3.08 |  |  | 1 (50% < degradation: 1) | 2 (10% < degradation < 50%: 2) | 
CC(C)c1cc(C(=O)N(C)Cc2ccc(C(=O)O)cc2)c(O)cc1O [Compound (i), reference compound] |  |  |  |  | No degradation | No degradation | no degradation
CC(C)c1cc(C(=O)N(C)Cc2cccc(C(=O)NCCOCCOC(=O)n3cc(-c4cnc5nnn([C@@H](C)c6ccc7nccn7c6)c5n4)cn3)c2)c(O)cc1O [OZD-MET 04, 2-{2-[(3-{[1-[2,4-dihydroxy-5-isopropylphenyl]-N-methylformamido]methyl}phenyl)formamido]ethoxy}ethyl 4-[3-(1-{imidazole[1,2-a]pyridin-6-yl}ethyl)-[1,2,3]triazolo[4,5-b]pyrazin-5-yl]pyrazole-1-carboxylate] | 4.65 | 4.18 |  |  | 2 (10% < degradation < 50%: 2) | 3 (degradation < 10%: 3) | 
CC(C)c1cc(C(=O)N(C)Cc2cccc(C(=O)NCCOCCOC(=O)Nc3ccc4nccc(Oc5ccc(NC(=O)C6(C(=O)Nc7ccc(F)cc7)CC6)cc5)c4c3)c2)c(O)cc1O [OZD-MET 06, 2-{2-[(3-{[1-(2,4-dihydroxy-5-isopropylphenyl)-N-methylformamido]methyl}phenyl)formamido]ethoxy}ethyl N-[4-(4-{1-[(4-fluorophenyl)carbamoyl]cyclopropanamido}phenoxy)quinolin-6-yl)carbamate] | 4.25 | 3.38 |  |  | 2 (10% < degradation < 50%: 2) | 2 (10% < degradation < 50%: 2) | 
2,4-dihydroxy-N-({4-[(5-{4-[3-(1-{imidazole[1,2-a]pyridin-6-yl}ethyl)-[1,2,3]triazolo[4,5-b]pyrazin-5-yl]pyrazol-1-yl}-5-oxopentyl) carbamoyl]phenyl}methyl)-5-isopropyl-N-methylbenzamide [OZD-MET 05] |  |  | 5.71 | 4.72 | 2 (10% < degradation < 50%: 2) | 2 (10% < degradation < 50%: 2) | 
C[C@@H](Oc1cc(-c2cnn(C3CCNCC3)c2)cnc1N)c1c(Cl)ccc(F)c1Cl [Crizotinib, reference compound] | 31.9 | 20.3 |  |  | No degradation |  | no degradation

Second part, led by results:

IC50 (H1437 cells; Homo sapiens, NCI-H1437, 72 h) [µM] | IC50 (H596 cells; Homo sapiens, NCI-H596, 72 h) [µM] | IC50 (H1437 cells) [µM] | IC50 (H596 cells) [µM] | Compound | c-MET degradation H596 (c-MET (total form) [1]) | c-MET degradation H1437 (c-MET (total form) [2]) | degradation of the target MET protein (c-MET (total form) [1])
3.21 | 3.43 |  |  | CC(C)c1cc(C(=O)N(C)Cc2ccc(C(=O)NCCCCC(=O)Nc3ccc4nccc(Oc5ccc(NC(=O)C6(C(=O)Nc7ccc(F)cc7)CC6)cc5)c4c3)cc2)c(O)cc1O [OZD-MET 07, N′1-{4-[(6-{5-[(4-{[1-(2,4-dihydroxy-5-isopropylphenyl)-N-methylformamido]methyl}phenyl)formamido]pentanamido}quinolin-4-yl)oxy]phenyl}-N1-(4-fluorophenyl)cyclopropane-1,1-dicarboxamide] | 1 (50% < degradation: 1) | 2 (10% < degradation < 50%: 2) | 
3.44 | 3.99 |  |  | CC(C)c1cc(C(=O)N(C)Cc2ccc(C(=O)NCCCCC(=O)N3CCC(COc4cnc(-c5cccc(Cn6nc(-c7cccc(C#N)c7)ccc6=O)c5)nc4)CC3)cc2)c(O)cc1O [OZD-MET 11, N-{[4-({5-[4-({[2-(3-{[3-(3-cyanophenyl)-6-oxopyridazin-1-yl]methyl}phenyl)pyrimidin-5-yl]oxy}methyl)piperidin-1-yl]-5-oxopentyl}carbamoyl)phenyl]methyl}-2,4-dihydroxy-5-isopropyl-N-methylbenzamide] | 2 (10% < degradation < 50%: 2) | 1 (50% < degradation: 1) | 
3.11 | 4.18 |  |  | CC(C)c1cc(C(=O)N(C)Cc2ccc(C(=O)NCCCCC(=O)Nc3ccc(-c4cnc5ncc(Cc6ccc7ncccc7c6)n5n4)cc3F)cc2)c(O)cc1O [OZD-MET 09, N-[(4-{[4-({2-fluoro-4-[7-(quinolin-6-ylmethyl)imidazo[1,2-b][1,2,4]triazin-2-yl]phenyl}carbamoyl)butyl]carbamoyl}phenyl)methyl]-2,4-dihydroxy-5-isopropyl-N-methyl-benzamide] | 2 (10% < degradation < 50%: 2) | 1 (50% < degradation: 1) | 
3.5 | 3.07 |  |  | CC(C)c1cc(C(=O)N(C)Cc2cccc(C(=O)NCCOCCOC(=O)N3CCC(n4cc(-c5cnc(N)c(O[C@@H](C)c6c(Cl)ccc(F)c6Cl)c5)cn4)CC3)c2)c(O)cc1O (stereo in doubt) [OZD-MET 01, 2-{2-[(3-{[1-(2,4-dihydroxy-5-isopropylphenyl)-N-methylformamido]methyl}phenyl)formamido]ethoxy}ethyl 4-(4-{6-amino-5-[1-(2,6-dichloro-3-fluorophenyl)ethoxy]pyridin-3-yl}pyrazol-1-yl)piperidine-1-carboxylate] | 1 (50% < degradation: 1) | 1 (50% < degradation: 1) | 
3.29 | 3.19 |  |  | CC(C)c1cc(C(=O)N(C)Cc2cccc(C(=O)NCCOCCOC(=O)N3CCC(COc4cnc(-c5cccc(Cn6nc(-c7cccc(C#N)c7)ccc6=O)c5)nc4)CC3)c2)c(O)cc1O [OZD-MET 10, 2-{2-[(3-{[1-(2,4-dihydroxy-5-isopropylphenyl)-N-methylformamido]methyl}phenyl)formamido]ethoxy}ethyl 4-({[2-(3-{[3-(3-cyanophenyl)-6-oxopyridazin-1-yl]methyl}phenyl)pyrimidin-5-yl]oxy}methyl)piperidine-1-carboxylate] | 1 (50% < degradation: 1) | 1 (50% < degradation: 1) | 
2.64 | 1.97 |  |  | CC(C)c1cc(C(=O)N(C)Cc2ccc(C(=O)NCCCCC(=O)N3CCC(n4cc(-c5cnc(N)c(O[C@@H](C)c6c(Cl)ccc(F)c6Cl)c5)cn4)CC3)cc2)c(O)cc1O (stereo in doubt) [OZD-MET 03, N-{[4-({5-[4-(4-{6-amino-5-[1-(2,6-dichloro-3-fluorophenyl)ethoxy]pyridine-3-yl}pyrazol-1-yl)piperidin-1-yl]-5-oxopentyl}carbamoyl)phenyl]methyl}-2,4-dihydroxy-5-isopropyl-N-methylbenzamide] | 1 (50% < degradation: 1) | 1 (50% < degradation: 1) | 
